# Reference: patent US20200197526A1, “REFILLABLE DRUG DELIVERY DEVICES AND METHODS OF USE THEREOF” (President and Fellows of Harvard College, priority 2014, published 2020)
# Assays:
# [1] = tested on: MDA-MB-231 xenograft tumors; test: Xenograft tumor study with drug refilling; type: in vivo, J:Nu mice; conditions: 120 μg doxorubicin per animal IV (FIG. 5C)
# Procedure: All animal experiments were performed according to established animal protocols. Tumors were created by injecting 10^6 MDA-MB-231 cells (American Type Culture Collection, VA) combined with Matrigel (BD Biosciences, CA) to a total volume of 200 μL (100 μL PBS and 100 μL Matrigel) into the hind limbs of 8 week old J:Nu (Foxn1^nu/Foxn1^nu) mice (Jackson Labs, ME). 35 days following tumor inoculation tumors were injected with alginate gels. 20 mg/mL alginate conjugated to DNA (thioT-SH or unconjugated) was mixed with doxorubicin (1.6 mg drug per mL of gel), then crosslinked with 4% wt/v CaSO4 (1.22 M) and then 50 μL of gel were injected into tumors with a 23-gauge needle. 2, 3, 4, and 5 weeks after initial tumoral gel injection, mice were injected retro-orbitally with 100 μL 0.5% DNA-conjugated alginate carrying doxorubicin (5% oxidized alginate, thioA-SH, Dye-750, 160 μg Dox-hydrazide=120 μg Dox). Throughout the study, tumor area was measured twice per week with digital calipers in two dimensions and the product of the two dimensional values was used to approximate tumor area. […]
# The breast cancer MDA-MB-231 model was chosen because it is a slow-growing tumor, widely used to test chemotherapeutic strategies. […] The ability of targeted therapy to reduce tumor size was assessed by monitoring the change in tumor size in the three days following each IV administration. […]
# [2] = tested on: DNA-conjugated calcium-alginate gels; test: In vitro binding of fluorescent oligonucleotides to DNA-conjugated calcium alginate gels (FIG. 2); conditions: alginate-(T)20 calcium gel; phosphate buffer with 1 mM calcium chloride
Compound,change in tumor size in the three days following each IV administration [1],binding of fluorescently-labeled oligonucleotides to gel surface [2]
COc1cccc2c1C(=O)c1c(O)c3c(c(O)c1C2=O)C[C@@](O)(C(=O)CO)C[C@@H]3O[C@H]1C[C@H](N)[C@H](O)[C@H](C)O1 [doxorubicin],continued to grow,
AAAAAAAAAAAAAAAAAAAA-FAM [(A)20],,bound to the gel surface in a sequence-specific manner
TTTTTTTTTTTTTTTTTTTT-FAM [(T)20],,little binding
